Test results taken from publication PMC7588595, “Small-molecule active pharmaceutical ingredients of approved cancer therapeutics inhibit human aspartate/asparagine-β-hydroxylase” (Bioorganic & Medicinal Chemistry, 2020).
Structures can show the parent of a compound that is named as a salt. Where two headings read alike, the source gives them in different places.

Biological target: T1, human AspH (His6-AspH315–758) (Homo sapiens, UniProt Q12797)
T1 construct: N-Terminally His6-tagged human AspH315–758 (His6-AspH315–758) was produced in Escherichia coli BL21 (DE3) cells; made in house; host or cells: Escherichia coli BL21 (DE3), pET-28a(+) vector
T1 sequence (Q12797 315-758): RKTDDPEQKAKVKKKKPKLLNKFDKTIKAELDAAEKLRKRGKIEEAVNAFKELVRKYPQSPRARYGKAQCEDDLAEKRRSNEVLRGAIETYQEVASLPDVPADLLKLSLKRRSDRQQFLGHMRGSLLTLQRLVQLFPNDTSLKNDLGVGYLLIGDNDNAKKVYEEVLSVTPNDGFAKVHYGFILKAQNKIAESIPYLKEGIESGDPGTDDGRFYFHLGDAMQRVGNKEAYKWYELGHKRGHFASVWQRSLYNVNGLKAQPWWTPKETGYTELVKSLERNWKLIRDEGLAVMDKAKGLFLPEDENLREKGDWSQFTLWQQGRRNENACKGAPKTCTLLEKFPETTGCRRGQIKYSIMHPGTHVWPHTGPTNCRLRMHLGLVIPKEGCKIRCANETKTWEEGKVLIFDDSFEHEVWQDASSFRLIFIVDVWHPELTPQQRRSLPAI
Assay: SPE-MS AspH inhibition assay (hFX-CP101-119 substrate hydroxylation)
Format: biochemical
Details: for Plate 1 (% inhibition): 384-well Plate 1

[1] = AspH-inhibitor screening, 384-well Plate 1, substrate conversion
[2] = AspH-inhibitor screening, Plate 1-duplicate
[3] = AspH-inhibitor screening, Plate 1-duplicate, substrate conversion

Row | Plate 1 (% inhibition) (AspH-inhibitor screening) [%] | Plate 1 (% conversion) [1] [%] | Plate 1-duplicate (% inhibition) [2] [%] | Plate 1-duplicate (% conversion) [3] [%] | Structure (SMILES) | Plate 1 (% conversion) [%] | Plate 1-duplicate (% conversion) [%]
1 | 4.40 | 47.72 | 1.12 | 51.48 | CO[C@@H](C(=O)N1Cc2[nH]nc(NC(=O)c3ccc(N4CCN(C)CC4)cc3)c2C1)c1ccccc1 [PHA-739358 (Danusertib)] | – | –
2 | -11.59 | 55.10 | -0.06 | 52.07 | Cc1ccc([N+](=O)[O-])cc1S(=O)(=O)N(C)/N=C/c1cnc2ccc(Br)cn12.Cl [PIK-75 HCl] | – | –
3 | – | 7.13 | – | 6.90 | CO[C@@H]1[C@H](N(C)C(=O)c2ccccc2)C[C@H]2O[C@]1(C)n1c3ccccc3c3c4c(c5c6ccccc6n2c5c31)C(=O)NC4 [PKC412_Midostaurin] | – | –
4 | 6.60 | 46.70 | -2.08 | 53.08 | CC(=O)O[C@H]1C(=O)[C@@]2(C)[C@H]([C@H](OC(=O)c3ccccc3)[C@]3(O)C[C@H](OC(=O)[C@H](O)[C@@H](NC(=O)c4ccccc4)c4ccccc4)C(C)=C1C3(C)C)[C@]1(OC(C)=O)CO[C@@H]1C[C@@H]2O [Paclitaxel] | – | –
5 | 13.54 | 43.50 | 4.20 | 49.96 | CC(=O)c1c(C)c2cnc(Nc3ccc(N4CCNCC4)cn3)nc2n(C2CCCC2)c1=O [Palbociclib] | – | –
6 | 44.02 | 29.42 | 37.62 | 33.38 | Cc1[nH]c2ccccc2c1CCNCc1ccc(/C=C/C(=O)NO)cc1 [Panobinostat] | – | –
7 | -0.37 | 49.92 | -28.79 | 66.32 | Cc1ccc(Nc2nccc(N(C)c3ccc4c(C)n(C)nc4c3)n2)cc1S(N)(=O)=O.Cl [Pazopanib hydrochloride] | – | –
8 | 4.18 | 47.82 | -21.51 | 62.71 | Cc1ccc(Nc2nccc(N(C)c3ccc4c(C)n(C)nc4c3)n2)cc1S(N)(=O)=O [Pazopanib] | – | –
9 | 6.49 | 46.75 | 6.63 | 48.75 | Nc1nc2[nH]cc(CCc3ccc(C(=O)N[C@@H](CCC(=O)[O-])C(=O)[O-])cc3)c2c(=O)[nH]1.O.O.O.O.O.O.O.[Na+].[Na+] [Pemetrexed, Disodium salt, Heptahydrate] | – | –
10 | 17.80 | 41.53 | 10.26 | 46.95 | Nc1nc2[nH]cc(CCc3ccc(C(=O)N[C@@H](CCC(=O)O)C(=O)O)cc3)c2c(=O)[nH]1 [Pemetrexed] | – | –
11 | 10.69 | 44.81 | 8.07 | 48.04 | OC[C@H]1O[C@@H](n2cnc3c2NC=NC[C@H]3O)C[C@@H]1O [Pentostatin] | – | –
12 | -1.17 | 50.29 | -2.15 | 53.11 | CCCCCCCCCCCCCCCCCCOP(=O)([O-])OC1CC[N+](C)(C)CC1 [Perifosine aq/PBS] | – | –
13 | 3.20 | 48.27 | 17.17 | 43.53 | CC[C@@H]1C(=O)OC[C@@H]1Cc1cncn1C [Pilocarpine] | – | –
14 | 11.08 | 44.63 | 4.27 | 49.93 | O=C(CCBr)N1CCN(C(=O)CCBr)CC1 [Pipobroman] | – | –
15 | 9.96 | 45.15 | 5.23 | 49.45 | c1cc(CN2CCCNCCNCCCNCC2)ccc1CN1CCCNCCNCCCNCC1 [Plerixafor] | – | –
16 | 0.86 | 49.35 | 1.01 | 51.54 | Nc1cccc2c1C(=O)N(C1CCC(=O)NC1=O)C2=O (stereo not drawn) [Pomalidomide] | – | –
17 | 13.78 | 43.39 | 14.13 | 45.03 | C#CCC(Cc1cnc2nc(N)nc(N)c2n1)c1ccc(C(=O)N[C@@H](CCC(=O)O)C(=O)O)cc1 (stereo partly drawn) [Pralatrexate] | – | –
18 | 12.19 | 44.12 | 8.98 | 47.59 | CC[C@H](C)C(=O)O[C@H]1C[C@H](O)C=C2C=C[C@H](C)[C@H](CC[C@@H](O)C[C@@H](O)CC(=O)O)[C@H]21 [Pravastatin] | – | –
19 | -2.32 | 50.82 | 2.01 | 51.04 | C[C@]12C=CC(=O)C=C1CC[C@@H]1[C@@H]2C(=O)C[C@@]2(C)[C@H]1CC[C@]2(O)C(=O)CO [Prednisone] | – | –
20 | 0.24 | 49.64 | 5.52 | 49.30 | CNNCc1ccc(C(=O)NC(C)C)cc1 [Procarbazine hydrochloride] | – | –
21 | 11.37 | 44.50 | 8.52 | 47.81 | CCN(CC)CCCC(C)Nc1c2ccc(Cl)cc2nc2ccc(OC)cc12 (stereo not drawn) [Quinacrine HCl] | – | –
22 | 11.05 | 44.65 | 0.72 | 51.68 | COc1cc(Nc2ncc(F)c(Nc3ccc4c(n3)NC(=O)C(C)(C)O4)n2)cc(OC)c1OC [R406_Tamatinib] | – | –
23 | 38.69 | 31.88 | 34.01 | 35.17 | Cn1c(Nc2ccc(C(F)(F)F)cc2)nc2cc(Oc3ccnc(-c4ncc(C(F)(F)F)[nH]4)c3)ccc21 [RAF265] | – | –
24 | 2.93 | 48.40 | 4.05 | 50.03 | COc1cc(F)c(F)c(Nc2ccc(I)cc2F)c1NS(=O)(=O)C1(C[C@H](O)CO)CC1 [RDEA119_Refametinib] | – | –
25 | 17.35 | 41.74 | 14.45 | 44.88 | O=C(c1ccc(OCCN2CCCCC2)cc1)c1c(-c2ccc(O)cc2)sc2cc(O)ccc12 [Raloxifene] | – | –
26 | -16.43 | 57.34 | -26.38 | 65.13 | CO[C@H]1C[C@@H]2CC[C@@H](C)[C@@](O)(O2)C(=O)C(=O)N2CCCC[C@H]2C(=O)O[C@H]([C@H](C)C[C@@H]2CC[C@@H](O)[C@H](OC)C2)CC(=O)[C@H](C)/C=C(\C)[C@@H](O)[C@@H](OC)C(=O)[C@H](C)C[C@H](C)/C=C/C=C/C=C/1C [Rapamycin (sirolimus)] | – | –
27 | 16.02 | 42.35 | 8.84 | 47.66 | CO[C@H]1C[C@@H]2CC[C@@H](C)[C@@](O)(O2)C(=O)C(=O)N2CCCC[C@H]2C(=O)O[C@H]([C@H](C)C[C@@H]2CC[C@@H](OP(C)(C)=O)[C@H](OC)C2)CC(=O)[C@H](C)/C=C(\C)[C@@H](O)[C@@H](OC)C(=O)[C@H](C)C[C@H](C)/C=C/C=C/C=C/1C [Ridaforolimus] | – | –
28 | 0.07 | 49.72 | 2.99 | 50.56 | CS(=O)(=O)c1ccc(C2=C(c3ccccc3)C(=O)OC2)cc1 [Rofecoxib (Vioxx)] | – | –

Row | Structure (SMILES) | Plate 1 (% inhibition) (AspH-inhibitor screening) [%] | Plate 1 (% conversion) [1] [%] | Plate 1-duplicate (% inhibition) [2] [%] | Plate 1-duplicate (% conversion) [3] [%] | Plate 1 (% conversion) [%] | Plate 1-duplicate (% conversion) [%]
29 | CCCS(=O)(=O)Nc1ccc(F)c(C(=O)c2c[nH]c3ncc(-c4ccc(Cl)cc4)cc23)c1F [PLX4032_Vemurafenib] | 39.76 | 31.39 | 46.15 | 29.15 | – | –
30 | C[C@]12C=CC(=O)C=C1CC[C@@H]1[C@@H]2[C@@H](O)C[C@@]2(C)[C@H]1CC[C@]2(O)C(=O)CO [Prednisolone] | 19.12 | – | 12.03 | – | 40.92 | 46.08
31 | COCC1(CO)C(=O)C2CCN1CC2 (stereo not drawn) [Prima-1 Met] | 3.70 | 48.04 | 3.39 | 50.36 | – | –
32 | CNC(=O)c1ccc(N2C(=S)N(c3ccc(C#N)c(C(F)(F)F)c3)C(=O)C23CCC3)cc1F [RD162] | -1.12 | 50.27 | -2.20 | 53.13 | – | –
